Like-named read-outs stand apart in the source and are kept apart here.
Experiment: Plasma pharmacokinetics of lorlatinib at steady state (LC-MS/MS, non-compartmental analysis)
Type: in vivo, human
Details: human, plasma, oral; for Cmax: read-out: Cmax; for Tmax: read-out: Tmax
From the text: Lorlatinib was isolated from human plasma by a liquid-iquid extraction procedure. […] A linear-log trapezoidal method was used [NT] A best-fit method was used to estimate terminal elimination and to extrapolate any plasma concentration versus time profiles to compute [NT].

[1] = 60 mg/m2, Cohort A1, 60 mg/m2 per dose, C1D15, individual patient
[2] = 60 mg/m2, Cycle 1 Day 1, Cohort A1, 60 mg/m2 per dose, individual patients
[3] = 60 mg/m2, Cycle 1 Day 15, Cohort A1, 60 mg/m2 per dose, individual patients
[4] = 75 mg/m2, Cohort A1, 75 mg/m2 per dose, C1D15, Geometric Mean, N 3
[5] = 75 mg/m2, Cohort A1, 75 mg/m2 per dose, C1D15, Median, N 3
[6] = 75 mg/m2, Cycle 1 Day 1, Cohort A1, 75 mg/m2 per dose, individual patients
[7] = 95 mg/m2, Cohort A1, 95 mg/m2 per dose, C1D15, Geometric Mean, N 9
[8] = 95 mg/m2, Cohort A1, 95 mg/m2 per dose, C1D15, Median, N 9
[9] = 95 mg/m2, Cohort B2, 95 mg/m2 per dose, C1D15, Geometric Mean, N 2
[10] = 95 mg/m2, Cohort B2, 95 mg/m2 per dose, C1D15, Median, N 2
[11] = 95 mg/m2, Cohort B2, 95 mg/m2 per dose, C1D15, individual patient
[12] = 95 mg/m2, Cycle 1 Day 1, Cohort A1, 95 mg/m2 per dose
[13] = 95 mg/m2, Cycle 1 Day 1, Cohort B2, 95 mg/m2 per dose
[14] = 95 mg/m2, Cycle 1 Day 1, Cohort A1, 95 mg/m2 per dose, individual patients
[15] = 95 mg/m2, Cycle 1 Day 15, Cohort B2, 95 mg/m2 per dose
[16] = 95 mg/m2, steady state, Cohort B2 (with topotecan/cyclophosphamide), 95 mg/m^2 QD, individual values
[17] = 100 mg, Cohort A2, 100 mg per dose, C1D15, Geometric Mean, N 5
[18] = 100 mg, Cohort A2, 100 mg per dose, C1D15, Median, N 5
[19] = 100 mg, Cycle 1 Day 1, Cohort A2, 100 mg per dose, individual patients
[20] = 150 mg per dose, Cycle 1 Day 1, Cohort A2, 150 mg per dose
[21] = 150 mg per dose, Cycle 1 Day 15, Cohort A2, 150 mg per dose
[22] = 150 mg, Cohort A2, 150 mg per dose, C1D15, Geometric Mean, N 10
[23] = 150 mg, Cohort A2, 150 mg per dose, C1D15, Median, N 10
[24] = 150 mg, Cycle 1 Day 1, Cohort A2, 150 mg per dose, individual patients
[25] = 150 mg, Cycle 1 Day 15, Cohort A2, 150 mg per dose, individual patients

SMILES: C[C@H]1Oc2cc(cnc2N)-c2c(nn(C)c2C#N)CN(C)C(=O)c2ccc(F)cc21 [Lorlatinib, (10R)-7-amino-12-fluoro-2,10,16-trimethyl-15-oxo-10,15,16,17-tetrahydro-2H-8,4-(metheno)pyrazolo[4,3-h][2,5,11]-benzoxadiazacyclotetradecine-3-carbonitrile]
- Cmax [1]: 623 ng/mL
- Tmax [1]: 2 h
- AUC(0-t) [2]: 3960 ng·h/mL
- MRT last [2]: 6.96 h
- Cmax [2]: 761 ng/mL
- Tmax [2]: 1 h
- AUC(0-t) [3]: 4140 ng·h/mL
- AUC(0-inf) (60 mg/m2, Cycle 1 Day 15, Cohort A1, 60 mg/m2 per dose, individual patients, read-out: AUCINF_obs): 5050 ng·h/mL
- AUC(0-inf) (60 mg/m2, Cycle 1 Day 15, Cohort A1, 60 mg/m2 per dose, individual patients, read-out: AUCINF_pred): 5040 ng·h/mL
- AUC (60 mg/m2, Cycle 1 Day 15, Cohort A1, 60 mg/m2 per dose, individual patients, read-out: AUC_TAU): 4140 ng·h/mL
- AUC (60 mg/m2, Cycle 1 Day 15, Cohort A1, 60 mg/m2 per dose, individual patients, read-out: AUCall): 4140 ng·h/mL
- Cmax [3]: 623 ng/mL
- MRT inf (60 mg/m2, Cycle 1 Day 15, Cohort A1, 60 mg/m2 per dose, individual patients, read-out: MRTINF_obs): 13 h
- MRT inf (60 mg/m2, Cycle 1 Day 15, Cohort A1, 60 mg/m2 per dose, individual patients, read-out: MRTINF_pred): 12.9 h
- Tmax [3]: 2 h
- AUC (60 mg/m2, steady state, Cohort A1, 60 mg/m^2 QD, (CV), read-out: AUCtau): 3930 ng·h/mL
- Cmax (60 mg/m2, steady state, Cohort A1, 60 mg/m^2 QD, (CV)): 492 ng/mL
- Tmax (60 mg/m2, steady state, Cohort A1, 60 mg/m^2 QD): 2 h
- AUC (75 mg/m2, Cohort A1, 75 mg/m2 per dose, C1D15, Geometric Mean, N 3, read-out: AUC_TAU): 4150 ng·h/mL
- Cmax [4]: 645 ng/mL
- Tmax [4]: 2.29 h
- AUC (75 mg/m2, Cohort A1, 75 mg/m2 per dose, C1D15, Median, N 3, read-out: AUC_TAU): 4020 ng·h/mL
- Cmax [5]: 659 ng/mL
- Tmax [5]: 2 h
- Cmax (75 mg/m2, Cohort A1, 75 mg/m2 per dose, C1D15, individual patient): 659 ng/mL
- AUC(0-t) [6]: 6740 ng·h/mL
- MRT last [6]: 7.77 h
- AUC (75 mg/m2, Cycle 1 Day 1, Cohort A1, 75 mg/m2 per dose, individual patients, read-out: AUCall): 6740 ng·h/mL
- Cmax [6]: 961 ng/mL
- Tmax [6]: 1 h
- AUC(0-inf) (75 mg/m2, Cycle 1 Day 15, Cohort A1, 75 mg/m2 per dose, individual patients, read-out: AUCINF_obs): 4500 ng·h/mL
- AUC(0-inf) (75 mg/m2, Cycle 1 Day 15, Cohort A1, 75 mg/m2 per dose, individual patients, read-out: AUCINF_pred): 4490 ng·h/mL
- Cmax (75 mg/m2, Cycle 1 Day 15, Cohort A1, 75 mg/m2 per dose, individual patients): 659 ng/mL
- MRT inf (75 mg/m2, Cycle 1 Day 15, Cohort A1, 75 mg/m2 per dose, individual patients, read-out: MRTINF_obs): 10.3 h
- MRT inf (75 mg/m2, Cycle 1 Day 15, Cohort A1, 75 mg/m2 per dose, individual patients, read-out: MRTINF_pred): 10.3 h
- AUC (75 mg/m2, steady state, Cohort A1, 75 mg/m^2 QD, (CV), read-out: AUCtau): 4160 ng·h/mL
- Cmax (75 mg/m2, steady state, Cohort A1, 75 mg/m^2 QD, (CV)): 645 ng/mL
- Tmax (75 mg/m2, steady state, Cohort A1, 75 mg/m^2 QD): 2 h
- AUC (95 mg/m2, Cohort A1, 95 mg/m2 per dose, C1D15, Geometric Mean, N 9, read-out: AUC_TAU): 7470 ng·h/mL
- Cmax [7]: 1020 ng/mL
- Tmax [7]: 1.47 h
- AUC (95 mg/m2, Cohort A1, 95 mg/m2 per dose, C1D15, Median, N 9, read-out: AUC_TAU): 6910 ng·h/mL
- Cmax [8]: 1100 ng/mL
- Tmax [8]: 1 h
- AUC (95 mg/m2, Cohort B2, 95 mg/m2 per dose, C1D15, Geometric Mean, N 2, read-out: AUC_TAU): 6690 ng·h/mL
- Cmax [9]: 817 ng/mL
- Tmax [9]: 2.83 h
- AUC (95 mg/m2, Cohort B2, 95 mg/m2 per dose, C1D15, Median, N 2, read-out: AUC_TAU): 6810 ng·h/mL
- Cmax [10]: 824 ng/mL
- Tmax [10]: 3 h
- AUC (95 mg/m2, Cohort B2, 95 mg/m2 per dose, C1D15, individual patient, read-out: AUC_TAU): 8100 ng·h/mL
- Cmax [11]: 926 ng/mL
- Tmax [11]: 4 h
- MRT last [12]: 7.38 h
- Tmax [12]: 1 h
- Cmax [13]: 914 ng/mL
- Tmax [13]: 2 h
- MRT last [14]: 9.06 h
- Tmax [14]: 2 h
- Tmax (95 mg/m2, Cycle 1 Day 15, Cohort A1, 95 mg/m2 per dose): 1 h
- AUC(0-t) [15]: 8100 ng·h/mL
- AUC(0-inf) (95 mg/m2, Cycle 1 Day 15, Cohort B2, 95 mg/m2 per dose, read-out: AUCINF_obs): 5730 ng·h/mL
- AUC(0-inf) (95 mg/m2, Cycle 1 Day 15, Cohort B2, 95 mg/m2 per dose, read-out: AUCINF_pred): 5730 ng·h/mL
- AUC (95 mg/m2, Cycle 1 Day 15, Cohort B2, 95 mg/m2 per dose, read-out: AUC_TAU): 8100 ng·h/mL
- AUC (95 mg/m2, Cycle 1 Day 15, Cohort B2, 95 mg/m2 per dose, read-out: AUCall): 8100 ng·h/mL
- Cmax [15]: 926 ng/mL
- MRT inf (95 mg/m2, Cycle 1 Day 15, Cohort B2, 95 mg/m2 per dose, read-out: MRTINF_obs): 7.79 h
- MRT inf (95 mg/m2, Cycle 1 Day 15, Cohort B2, 95 mg/m2 per dose, read-out: MRTINF_pred): 7.77 h
- Tmax [15]: 4 h
- MRT inf (95 mg/m2, Cycle 1 Day 15, Cohort A1, 95 mg/m2 per dose, individual patients, read-out: MRTINF_obs): 20.6 h
- MRT inf (95 mg/m2, Cycle 1 Day 15, Cohort A1, 95 mg/m2 per dose, individual patients, read-out: MRTINF_pred): 20.5 h
- AUC (95 mg/m2, steady state, Cohort A1, 95 mg/m^2 QD, (CV), read-out: AUCtau): 7470 ng·h/mL
- Cmax (95 mg/m2, steady state, Cohort A1, 95 mg/m^2 QD, (CV)): 1020 ng/mL
- Tmax (95 mg/m2, steady state, Cohort A1, 95 mg/m^2 QD): 1 h
- AUC (95 mg/m2, steady state, Cohort B2 (with topotecan/cyclophosphamide), 95 mg/m^2 QD, individual values, read-out: AUCtau): 8100 ng·h/mL
- Cmax [16]: 926 ng/mL
- Tmax [16]: 4 h
- AUC (100 mg, Cohort A2, 100 mg per dose, C1D15, Geometric Mean, N 5, read-out: AUC_TAU): 6790 ng·h/mL
- Cmax [17]: 789 ng/mL
- Tmax [17]: 1.74 h
- AUC (100 mg, Cohort A2, 100 mg per dose, C1D15, Median, N 5, read-out: AUC_TAU): 6130 ng·h/mL
- Cmax [18]: 569 ng/mL
- Tmax [18]: 2 h
- MRT last [19]: 12.4 h
- Tmax [19]: 2 h
- MRT inf (100 mg, Cycle 1 Day 15, Cohort A2, 100 mg per dose, individual patients, read-out: MRTINF_obs): 23.8 h
- MRT inf (100 mg, Cycle 1 Day 15, Cohort A2, 100 mg per dose, individual patients, read-out: MRTINF_pred): 23.7 h
- AUC (100 mg, steady state, Cohort A2, 100 mg QD, (CV), read-out: AUCtau): 6790 ng·h/mL
- Cmax (100 mg, steady state, Cohort A2, 100 mg QD, (CV)): 789 ng/mL
- Tmax (100 mg, steady state, Cohort A2, 100 mg QD): 2 h
- AUC(0-t) [20]: 8990 ng·h/mL
- MRT last [20]: 9.33 h
- AUC (150 mg per dose, Cycle 1 Day 1, Cohort A2, 150 mg per dose, read-out: AUCall): 8990 ng·h/mL
- Tmax [20]: 1 h
- AUC(0-t) [21]: 5000 ng·h/mL
- AUC (150 mg per dose, Cycle 1 Day 15, Cohort A2, 150 mg per dose, read-out: AUCall): 5000 ng·h/mL
- Tmax [21]: 2 h
- AUC (150 mg, Cohort A2, 150 mg per dose, C1D15, Geometric Mean, N 10, read-out: AUC_TAU): 6680 ng·h/mL
- Cmax [22]: 741 ng/mL
- Tmax [22]: 1.41 h
- AUC (150 mg, Cohort A2, 150 mg per dose, C1D15, Median, N 10, read-out: AUC_TAU): 6890 ng·h/mL
- Cmax [23]: 710 ng/mL
- Tmax [23]: 1 h
- AUC (150 mg, Cohort A2, 150 mg per dose, C1D15, individual patient, read-out: AUC_TAU): 5920 ng·h/mL
- AUC(0-t) [24]: 5920 ng·h/mL
- MRT last [24]: 8.35 h
- AUC (150 mg, Cycle 1 Day 1, Cohort A2, 150 mg per dose, individual patients, read-out: AUCall): 5920 ng·h/mL
- Cmax [24]: 564 ng/mL
- Tmax [24]: 1 h
- AUC (150 mg, Cycle 1 Day 15, Cohort A2, 150 mg per dose, read-out: AUC_TAU): 5000 ng·h/mL
- AUC(0-t) [25]: 7380 ng·h/mL
- AUC(0-inf) (150 mg, Cycle 1 Day 15, Cohort A2, 150 mg per dose, individual patients, read-out: AUCINF_pred): 8770 ng·h/mL
- AUC (150 mg, Cycle 1 Day 15, Cohort A2, 150 mg per dose, individual patients, read-out: AUC_TAU): 7380 ng·h/mL
- AUC (150 mg, Cycle 1 Day 15, Cohort A2, 150 mg per dose, individual patients, read-out: AUCall): 7380 ng·h/mL
- concentration at 24 h (150 mg, Cycle 1 Day 15, Cohort A2, 150 mg per dose, individual patients, read-out: Clast_pred): 128 ng/mL
- Cmax [25]: 658 ng/mL
- MRT inf (150 mg, Cycle 1 Day 15, Cohort A2, 150 mg per dose, individual patients, read-out: MRTINF_obs): 16.8 h
- MRT inf (150 mg, Cycle 1 Day 15, Cohort A2, 150 mg per dose, individual patients, read-out: MRTINF_pred): 16.7 h
- AUC (150 mg, steady state, Cohort A2, 150 mg QD, (CV), read-out: AUCtau): 6680 ng·h/mL
- Cmax (150 mg, steady state, Cohort A2, 150 mg QD, (CV)): 741 ng/mL
- Tmax (150 mg, steady state, Cohort A2, 150 mg QD): 1 h

From paper PMC10202811 (Nature Medicine, 2023)
